One data set concerns the target T1, CRTh2 (Homo sapiens, UniProt Q9Y5Y4).
T1 construct: expressed in transfected cells; host or cells: HEK cells (membrane preparation)
T1 sequence (Q9Y5Y4 1-395): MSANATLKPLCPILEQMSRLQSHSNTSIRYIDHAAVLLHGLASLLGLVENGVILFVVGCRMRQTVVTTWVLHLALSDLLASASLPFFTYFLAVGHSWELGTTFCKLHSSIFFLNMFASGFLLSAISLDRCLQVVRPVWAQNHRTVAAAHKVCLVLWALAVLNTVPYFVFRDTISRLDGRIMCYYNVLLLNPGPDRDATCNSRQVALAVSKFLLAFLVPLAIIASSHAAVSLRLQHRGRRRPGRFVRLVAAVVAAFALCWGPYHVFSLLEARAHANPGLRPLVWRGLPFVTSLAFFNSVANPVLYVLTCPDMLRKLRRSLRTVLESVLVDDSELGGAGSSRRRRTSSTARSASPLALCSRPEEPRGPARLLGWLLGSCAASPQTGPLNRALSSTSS
Put plainly: Ligand binding assay ([3H]PGD2 SPA on membranes of HEK cells expressing rhCRTh2/Gα16). The following applies: [3H]PGD2 displacement, HEK cell membranes containing CRTh2; read-out: pIC50 value (converted). The procedure: [^3H]PGD2 was purchased from Perkin Elmer Life Sciences with a specific activity of 100-210 Ci/mmol. All other chemicals were of analytical grade.
HEK cells expressing rhCRTh2/Gα16 were routinely maintained in DMEM containing 10% Foetal Bovine Serum (HyClone), 1 mg/ml geneticin, 2 mM L-glutamine and 1% non-essential amino acids. For the preparation of membranes, the adherent transfected HEKcells were grown to confluence in two layer tissue culture factories (Fisher, catalogue number TKT-170-070E). Maximal levels of receptor expression were induced by addition of […] sodium butyrate for the last 18 hours of culture. The adherent cells were washed once with phosphate buffered saline (PBS, 50 ml per cell factory) and detached by the addition of 50 ml per cell factory of ice-cold membrane homogenisation buffer [20 mM HEPES (pH 7.4), 0.1 mM dithiothreitol, 1 mM EDTA, 0.1 mM phenyl methyl sulphonyl fluoride and 100 μg/ml bacitracin]. Cells were pelleted by centrifugation at 220×g for 10 minutes at 4° C., re-suspended in half the original volume of fresh membrane homogenisation buffer and disrupted using a Polytron homogeniser for 2×20 second bursts keeping the tube in ice at all times. […] The final pellet was re-suspended in 4 ml of membrane homogenisation buffer per cell factory used and the protein content determined. […]
All assays were performed in Corning clear bottomed, white 96-well NBS plates (Fisher). […] (The optimum coating concentrations were determined for each batch of membranes) The beads were pelleted by centrifugation (800×g for 7 minutes at 4° C.), washed once with assay buffer (50 mM HEPES pH 7.4 containing 5 mM magnesium chloride) and finally re-suspended in assay buffer at a bead concentration of 10 mg/ml. […]
Compounds and DK-PGD2 were dissolved in DMSO and diluted in the same solvent to 100× the required final concentration. […] The assay plate was incubated at room temperature for 2 hours and counted on a Wallac Microbeta liquid scintillation counter (1 minute per well).

The structures appear in SMILES notation.

One may read the melting point as the temperature of the solid-liquid transition. `O=C(O)COc1ccc(Cl)cc1-c1ccc(C(=O)N2CCCC2)c(C(F)(F)F)c1` [Example 13, [[5-Chloro-4′(1-pyrrolidinylcarbonyl)-3′-(trifluoromethyl)[1,1′-biphenyl]-2-yl]oxy]-acetic acid] came in with a melting point of 197 to 198 °C. In addition, at CRTh2, the IC50 is 7.08 nM.
In turn, `C[C@H](Oc1ccc(Cl)cc1-c1ccc(S(C)(=O)=O)c(C(F)(F)F)c1)C(=O)O` [Example 16, (2S)-2-[[5-Chloro-4′-(methylsulfonyl)-(3′-trifluoromethyl)-[1,1′-biphenyl]-2-yl]oxy]propanoic acid] displayed a melting point of 77 to 79 °C.
For `CCS(=O)(=O)c1ccc(-c2cc(C(F)(F)F)ccc2O[C@@H](C)C(=O)O)cc1C(F)(F)F` [Example 10, (2S)-2-[[4′-(Ethylsulfonyl)-3′,5-bis(trifluoromethyl)[1,1′-biphenyl]-2-yl]oxy]propanoic acid], the melting point was 124 to 126 °C.
The compound `CC(C)S(=O)(=O)c1ccc(-c2cc(C(F)(F)F)ccc2OCC(=O)O)cc1F` [Example 6, [[3′-Fluoro-4′-[(1-methylethyl)sulfonyl]-5-(trifluoromethyl)[1,1′-biphenyl]-2-yl]oxy]acetic acid] showed a melting point of 170 to 171 °C.
On the same count and under the same terms, the figure for `C[C@H](Oc1ccc(Cl)cc1-c1ccc(S(=O)(=O)N2CCOCC2)c(C(F)(F)F)c1)C(=O)O` [Example 12, (2S)-2-[[5-Chloro-4′-(4-morpholinylsulfonyl)-3′-(trifluoromethyl)[1,1′-biphenyl]-2-yl]oxy]propanoic acid] is 148 to 149 °C.
Take `O=C(O)COc1ccc(Cl)cc1-c1ccc(S(=O)(=O)N2CCOCC2)c(C(F)(F)F)c1` [Example 11]: the melting point was 208 to 209 °C. Further, the IC50 at CRTh2 is 35.5 nM.
As to `CCS(=O)(=O)c1ccc(-c2cc(C(F)(F)F)ccc2OCC(=O)O)cc1C(F)(F)F` [Example 9, [[4′-(Ethylsulfonyl)-3′,5-bis(trifluoromethyl)[1,1′-biphenyl]-2-yl]oxy]acetic acid], the melting point is 174 to 175 °C.
For `C[C@H](Oc1ccc(Cl)cc1-c1cc(F)c(S(=O)(=O)N2CCOCC2)cc1F)C(=O)O` [Example 5], the IC50 on CRTh2 was 1.78 nM.
`C[C@H](Oc1ccc(Cl)cc1-c1ccc(C(=O)N2CCCC2)c(C(F)(F)F)c1)C(=O)O` [Example 14, (2S)-2-[[5-Chloro-4′-(1-pyrrolidinylcarbonyl)-3′-(trifluoromethyl)[1,1′-biphenyl]-2-yl]oxy]propanoic acid] yielded a melting point of 164 to 165 °C.
